Experimental data published in ChEMBL document CHEMBL1150890, “Cyclotheonamides E2 and E3, new potent serine protease inhibitors from the marine sponge of the genus Theonella” (J Nat Prod, 1998).
Starred links: 1 amine or outer side, 2 acyl side, 3 side chain; linkers in the order of their positions; H or OH if unused. Positions of bridges follow the written chain, without caps; N, C: chain ends. Non-standard residues stand in square brackets, D forms with d. Residues, ends and D or L forms follow the SMILES beside them. *: point of attachment. Arg(ψCOCO) = N=C(N)NCCC[C@H](N[*:1])C(=O)C(=O)[*:2]; X1 = O=C(/C=C/[C@H](Cc1ccc(O)cc1)N[*:1])[*:2]; aIle = CC[C@@H](C)[C@H](N)C(=O)O; Dap = NC[C@H](N)C(=O)O; PhAc = O=C(Cc1ccccc1)*

Experiments:
[1] = Inhibition of trypsin
Prothrombin = Prothrombin (Homo sapiens, UniProt P00734); assay: Inhibition of thrombin

IC50 [1] [nM]	IC50 (Prothrombin) [nM]	Compound
16	23	N=C(N)NCCC[C@@H]1NC(=O)[C@@H]2CCCN2C(=O)[C@@H](NC=O)CNC(=O)/C=C/[C@H](Cc2ccc(O)cc2)NC(=O)[C@@H](Cc2ccccc2)NC(=O)C1=O [CYCLOTHEONAMIDE A]
55	13	CC[C@H](C)[C@H]1NC(=O)C(=O)[C@H](CCCNC(=N)N)NC(=O)[C@@H]2CCCN2C(=O)[C@@H](NC(=O)[C@H](C)NC(=O)c2ccccc2)CNC(=O)/C=C/[C@H](Cc2ccc(O)cc2)NC1=O [CYCLOTHEONAMIDE E2]
52	9.5	CC[C@H](C)[C@H]1NC(=O)C(=O)[C@H](CCCNC(=N)N)NC(=O)[C@@H]2CCCN2C(=O)[C@@H](NC(=O)[C@H](C)NC(=O)CC(C)C)CNC(=O)/C=C/[C@H](Cc2ccc(O)cc2)NC1=O [CYCLOTHEONAMIDE E3]
30	2.9	CC[C@@H](C)[C@@H]1NC(=O)C(=O)[C@H](CCCNC(=N)N)NC(=O)[C@@H]2CCCN2C(=O)[C@@H](NC(=O)[C@H](C)NC(=O)Cc2ccccc2)CNC(=O)/C=C/[C@H](Cc2ccc(O)cc2)NC1=O [CYCLOTHEONAMIDE E] (PhAc-A[Dap]P[Arg(ψCOCO)][aIle][X1]; lactam 2-C)
